Reference: patent publication US20260327211A1, “MODULATORS OF A POTASSIUM CHANNEL AND OF TRPV1 CHANNEL AND USES THEREOF” (Bsense Bio Therapeutics Ltd., priority 2023, published 2026)
Where two headings read alike, the source gives them in different places.

Legend:
Type in all cases: cell-based
CHO-K1 cells = test: In vitro micronucleus; conditions: Plate 3 without S9, 24 hours
Experimental: The micronucleus assay was performed according to the regulatory guidelines. In brief, CHO-K1 cells were plated at 10000 cells/well in 3 plates and incubated In CHO-K1 growth medium (containing F12K, 10% FBS and 1% PS) overnight.
As a control for the S9 treatment, plate No. 1, cells were treated with cyclophosphamide as a positive control, for 3 hours. For plate No. 2, without S9 treatment, cells were treated with mitomycin C as a positive control, compounds for 3 hours, and for plate No. 3, without S9 treatment, cells were treated with bleomycin sulfate as a positive control continuously for 24 hours.
On the following day, 6 μg/mL of cytochalasin B were added to each well and plates were further incubated overnight. In the day after medium was replaced with a combined 10 μg/mL Hoechst dye solution and 0.5 μM calcein-AM in 100 μL warm DPBS for 30 minutes and the plates were scanned using CQ1 high-content analysis system.

rat DRG neurons [1] = test: Rat DRG neurons, current-evoked action potential firing; conditions: for Inhibition of current induced AP response: 100 nM
Excerpt: (§1) rDRGs isolation and primary cell culture: Briefly, rat DRGs from all spinal levels were carefully removed and collected in HBSS on ices, connective tissue of the epineurium surrounding the ganglion was removed and cells were dissociated using Collagenase-II and trypsin dissociation solutions. DRGs were dissociated further, passed through glass Pasteur pipettes to obtain single cells. Then dissociation solution was changed to 5% FBS containing DRG neuronal culture medium and plated onto ECL coated 12 mm cover glass.
(§2) Additional rDRGs experiments were performed using Lonza primary neonatal rat (Sprague Dawley neonatal; P2,3) DRG neurons (R-DRG-505, Lonza) plated and cultured according to the manufacturer.
(§3) Electrophysiology: Cells were used for electrophysiological recording at least 48 hours following rDRG isolation or at least 5 days following cryopreserved rDRG thawing. Round small neurons (20-40 μm in diameter) were selected for electrophysiology recordings, to select for small nociceptive neurons that propagate pain sensation in vivo and that are expressing both Kv7.2/3 and TRPV1 targets. Membrane excitability was monitored using current clamp configuration of the whole-cell patch-clamp technique. Positive current steps of different amplitude were injected (400 ms) to induce spikes trains before and following compound application.

hKv7.2/3 = molecular target: T1, hKv7.2/3 (Homo sapiens, UniProt O43525+O43526); test: Kv7.2/7.3 HCS, FLIPR potassium (thallium) assay, CHO/hKv7.2/3
T1 construct: host or cells: CHO
Experimental: (§4) Cell culture: Chinese hamster ovary (CHO) cell-line cells with a constitutive expression of human Kv7.2/3 channels (B'SYS GmbH, Switzerland) were cultured in F-12 nutrient mixture (Biological Industries) supplemented with 10% fetal bovine serum (Biological Industries) and 1% penicillin-streptomycin (Biological Industries) in a humidified 5% CO2 incubator at 37° C. To maintain the stability of human Kv7.2/7.3 expression antibiotic selection was added (Puromycin 5 μg/ml).
High content screen (HCS) using FLIPR Potassium Assay Kit: A FLIPR Potassium Assay Kit (R8222 FLIPR Potassium Assay Explorer Kits, Molecular Devices) was used with the CHO/hKv7.2/3 cell line to screen molecules against the hKv7.2/7.3 ion channel target. The assay exploits the permeability of thallium ions (Tl+) through potassium (K+) channels. In this assay, Tl+ indicator dye is used to produce a bright fluorescent signal upon the binding to Tl+ conducted through the potassium channels. The intensity of the Tl+ signal is proportional to the number of potassium channels in the open state. Therefore, it provides a functional indication of the potassium channel activity. To activate the voltage-gate potassium channels, the cells were stimulated with a mixture of K+ and Tl+ to depolarize the cell membrane. The fluorescence increase in the assay represents the influx of Tl+ into the cell specifically through the potassium channel, providing a functional read-out of hKv7.2/3 activity using a fluorescent plate reader coupled with injectors used to activate the channels.
According to optimization process to achieve uniform and consistent screening conditions the following protocol was established: Cells were seeded in 384-well, black-walled, clear-bottomed Greiner #781091, at a density of 5000 cells per well 24 hours before the assay conductance and incubated overnight in their normal growth medium. On the experiment day the medium was replaced with HBSS, HEPES, and the test compound/vehicle (0.2% DMSO). Dye solution (prepared according to the manufacturer) was added to the plates, which were incubated for 1.5 h light-protected in room temperature. Tecan Spark reader plate injectors were primed with Tl+(1 mM Tl2SO4) or Tl++K+(1 mM Tl2SO4; 5 mM K2SO4) for channel activation and data correction. […] To calculate EC50 values, the data was fitted to sigmoidal regression using Prism GraphPad. The fitting was constrained to a minimum of 1 and a maximal response of about 3.6 unless a different maximal response could be clearly identified.

rat DRG neurons [2] = test: Rat DRG neurons, capsaicin-evoked action potential firing; conditions: for Inhibition of capsaicin induced AP response: 100 nM
Excerpt: as §1, §2, §3
To assess the potency of compounds using DRG neurons, the inhibitory potency for CAP-evoked action potential (AP) trains was measured. For this purpose, DRG membrane potential was continuously measured, and the following protocol was performed:
Cells were perfused with vehicle containing bath solution. After 30 seconds, CAP (1 μM) was applied for 6 seconds to activate TRPV1 and stimulate AP trains.
After 30 seconds of perfusion with bath solution containing only vehicle, perfusion was changed to a bath solution containing compound, and after 3 minutes of compound application, CAP (1 μM) was applied again for 6 seconds to activate TRPV1 and stimulate AP trains.
Cells perfusion was changed back to bath solution containing only vehicle and after 3 minutes of compound washout, CAP (1 μM) was applied again for 6 seconds to activate TRPV1 and stimulate AP trains.
To evaluate the drug/control response, the number of AP spikes induced by CAP following incubation with test compound was divided by the average number of control AP spikes induced without compound, before compound incubation, and following its washout.

hERG = hERG (Homo sapiens, UniProt Q12809); test: hERG HCS, FLIPR potassium assay, CHO/hERG; parameters: host or cells: CHO; conditions: at highest concentration shown, Table 1
Experimental: as §4, with “hERG” for “Kv7.2/3”, “the hERG expression” for “the”, “the CHO cell line, antibiotics” for “human Kv7.2/7.3 expression antibiotic”, “selection (G418 […] and Hygromycin 500)” for “selection”, “applied.” for “added (Puromycin 5 μg/ml).”
FLIPR Potassium Assay Kit: The FLIPR Potassium Assay Kit (R8222 FLIPR Potassium Assay Explorer Kits, Molecular Devices) was used with CHO/hERG cell line, for screening compounds against the hERG ion-channel off-target, as detailed hereinabove.
According to optimization process, to achieve a uniform and consistent screening condition of molecules, the following protocol was established: Cells were seeded in 384-well, black-walled, clear-bottomed, at a density of 7,500 cells per well 24 hours before the assay conductance and incubated overnight in their normal growth medium. On the experiment day the medium was replaced with HBSS, HEPES, and the tested compound/vehicle (0.2% DMSO). Dye solution (prepared according to the manufacturer) was added to the wells and plates were incubated for 1.5 hour light-protected in room temperature. The Tecan Spark plate-reader injectors were primed with Tl+(1 mM Tl2SO4) or Tl++K+(1 mM Tl2SO4; 10 mM K2SO4) for channel activation and data correction. […]. To calculate IC50 values, the data was fitted to sigmoidal regression using Prism GraphPad.

hTRPV1 [3] = molecular target: T2, hTRPV1 (Homo sapiens, UniProt Q8NER1); test: hTRPV1 dual activity electrophysiology, CHO cells co-expressing hKv7.2/3 and hTRPV1; conditions: with hKv7.2/3 activation
T2 construct: CDS of NM_080704.4, inserted into the multiple cloning site of pcDNA3.1(+); host or cells: CHO/hKv7.2/3
Experimental: Cell culture and DNA transfection: CHO/hKv7.2/3 cells were transfected with hTRPV1 DNA constructs (CDS of NM_080704.4, inserted into the multiple cloning site of pcDNA3.1(+) between the Hind III and BamH I restriction site, Genscript). For CHO transfection, 1×10^6 cells were suspended in a reaction mix (Amaxa™ 4D-Nucleofector™-LONZA) containing 5 μg of hTRPV1 DNA and 0.5 μg of GFP DNA (for cells selection) in a cuvette.
The cells were transformed (Amaxa, DT-133 program for CHO transfection with p-3 Kit) and recovered for 10 minutes at RT in the hood. Then cells were re-suspended in a 10 mL antibiotic (Ab)-free medium suspension and were plated on Gelatin or PLL-coated cover glass in different cell densities. On the next morning, the medium was changed to full medium containing the CHO/hKv7.2/3 cell line selection antibiotics.
Extracellular (Bath) solution: The solution was composed of (in mM): NaCl, 140; KCl, 4; CaCl2, 1.8; MgCl2, 1.2; Glucose, 11; HEPES, 5.5. pH was adjusted to 7.3 with NaOH. Osmolarity was adjusted to 310 mOsm with Sucrose.
Intracellular (Pipette) solution: Pipettes were pulled from borosilicate glass (Warner Instrument Corp, USA) with a resistance of 3-7 MΩ and were filled with internal solution composed of (in mM): KCl, 130; MgCl2, 1; K ATP, 5; EGTA, 5; HEPES, 10. pH was adjusted to 7.3 with KOH. Osmolarity was adjusted to 290 mOsm with Sucrose.
A programmable valve-linked pressurized perfusion system was used for local application of compounds nearby the cell recorded in a consistent flow rate of 2-3 mL/minute. Series resistance was corrected and data were sampled at 5 kHz and low pass filtered at 2.4 kHz using MultiClamp 700B amplifier with pCLAMP11 software (Molecular Devices, USA).
At least 48 hours following cell transfection and plating, cells were recorded to assess the TRPV1 dual activity. Membrane potential was held at −90 mV. To measure the inhibitory effects of the tested compounds on hTRPV1 dual activity the following protocol was performed:
Cells were perfused with vehicle-only containing bath solution. After 30 seconds, a single −40 mV 1.5 second step was applied for Kv7.2/3 activation and 30 seconds later capsaicin (1 μM) was applied for 6 seconds to activate the TRPV1.
Cells perfusion was changed to a compound-containing bath solution, and after 2 minutes and 30 seconds of compound application, a single −40 mV 1.5 second step was applied for Kv7.2/3 activation and 30 seconds later capsaicin (1 μM) was applied for 6 seconds to activate the TRPV1.
Cells perfusion was thereafter changed back to vehicle only-containing bath solution. After 30 seconds, a single −40 mV 1.5 step was applied for Kv7.2/3 activation and 30 seconds later capsaicin (1 μM) was applied for 6 seconds to activate the TRPV1 followed by a capsaicin wash out.
The drug current response, when capsaicin was injected following 3 minutes of pre-incubation with the test compound, was divided by the averaged control currents, induced without compound, before compound incubation and following its washout, to evaluate the drug/control response.

hTRPV1 [4] = molecular target: T2, hTRPV1; test: TRPV1 HCS, Fluo-8 calcium flux, capsaicin activation, CHO cells expressing hTRPV1
Experimental: as §4, with “with” for “with a”, “hTRPV1” for “Kv7.2/3”, “stable expression” for “stability”, “hTRPV1,” for “human Kv7.2/7.3 expression”, “selection (G418 500 μg/ml)” for “selection”, “applied.” for “added (Puromycin 5 μg/ml).”
High content screen (HCS) using Fluo-8 No Wash Calcium flux Assay Kit: Fluo-8 No Wash Calcium Assay Kit (Abcam, ab112129) was used with CHO stably or transiently expressing TRPV1 to screen compounds against the hTRPV1 ion channel target. The cells were pre-loaded with Fluo-8AM which is membrane permeable. The AM groups of the Fluo-8AM were then being cleaved by intracellular esterase, trapping the Fluo8 in the cell. […] The relative fluorescence signal was calculated following background subtraction, comparing the fluorescence at each time point to its maximal level measured following Ionomycin application in the end.
According to optimization process to achieve uniform and consistent screening condition of molecules the following protocol was established: Cells were seeded in 384-well, black-walled, clear-bottomed, at a density of 5,000 cells per well 24 h before the assay conductance and incubated overnight in their normal growth medium. On the experiment day the medium was replaced in each well with HBSS, HEPES, and compound/vehicle (0.2% DMSO). Dye solution (prepared according to the manufacturer) was added to the wells and plates are incubated for 1.5 h light-protected in room temperature. The Tecan Spark plate reader injectors were then primed with capsaicin and Ionomycin for channel activation and data normalization, respectively. […] To calculate IC50 values, the data was fitted to sigmoidal regression line using Prism GraphPad. The fitting was constrained to a minimum of 0 and a maximal response of about 1 unless a different maximal response could be identified.

T2 sequence (Q8NER1 whole entry): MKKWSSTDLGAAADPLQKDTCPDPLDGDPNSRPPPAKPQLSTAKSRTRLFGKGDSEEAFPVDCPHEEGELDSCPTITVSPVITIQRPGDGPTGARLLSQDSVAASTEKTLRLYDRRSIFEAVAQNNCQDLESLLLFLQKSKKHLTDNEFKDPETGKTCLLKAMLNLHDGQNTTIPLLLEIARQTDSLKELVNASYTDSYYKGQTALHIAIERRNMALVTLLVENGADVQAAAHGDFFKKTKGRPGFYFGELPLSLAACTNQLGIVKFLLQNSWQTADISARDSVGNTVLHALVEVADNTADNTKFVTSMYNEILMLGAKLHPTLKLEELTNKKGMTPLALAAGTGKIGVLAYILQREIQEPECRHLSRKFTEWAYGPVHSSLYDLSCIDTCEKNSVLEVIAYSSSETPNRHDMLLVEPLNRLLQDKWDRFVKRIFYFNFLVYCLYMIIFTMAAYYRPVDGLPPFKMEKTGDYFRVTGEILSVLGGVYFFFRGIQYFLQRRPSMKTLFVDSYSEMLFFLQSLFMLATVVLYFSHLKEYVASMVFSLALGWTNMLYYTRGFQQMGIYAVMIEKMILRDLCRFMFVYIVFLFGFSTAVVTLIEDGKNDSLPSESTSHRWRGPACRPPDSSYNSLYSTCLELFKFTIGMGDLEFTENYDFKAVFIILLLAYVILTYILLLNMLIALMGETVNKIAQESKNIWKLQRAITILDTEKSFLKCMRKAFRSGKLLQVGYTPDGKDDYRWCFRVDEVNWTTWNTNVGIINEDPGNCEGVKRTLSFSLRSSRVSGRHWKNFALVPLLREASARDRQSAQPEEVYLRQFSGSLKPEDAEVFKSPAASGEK
T1 sequence (O43525 whole entry): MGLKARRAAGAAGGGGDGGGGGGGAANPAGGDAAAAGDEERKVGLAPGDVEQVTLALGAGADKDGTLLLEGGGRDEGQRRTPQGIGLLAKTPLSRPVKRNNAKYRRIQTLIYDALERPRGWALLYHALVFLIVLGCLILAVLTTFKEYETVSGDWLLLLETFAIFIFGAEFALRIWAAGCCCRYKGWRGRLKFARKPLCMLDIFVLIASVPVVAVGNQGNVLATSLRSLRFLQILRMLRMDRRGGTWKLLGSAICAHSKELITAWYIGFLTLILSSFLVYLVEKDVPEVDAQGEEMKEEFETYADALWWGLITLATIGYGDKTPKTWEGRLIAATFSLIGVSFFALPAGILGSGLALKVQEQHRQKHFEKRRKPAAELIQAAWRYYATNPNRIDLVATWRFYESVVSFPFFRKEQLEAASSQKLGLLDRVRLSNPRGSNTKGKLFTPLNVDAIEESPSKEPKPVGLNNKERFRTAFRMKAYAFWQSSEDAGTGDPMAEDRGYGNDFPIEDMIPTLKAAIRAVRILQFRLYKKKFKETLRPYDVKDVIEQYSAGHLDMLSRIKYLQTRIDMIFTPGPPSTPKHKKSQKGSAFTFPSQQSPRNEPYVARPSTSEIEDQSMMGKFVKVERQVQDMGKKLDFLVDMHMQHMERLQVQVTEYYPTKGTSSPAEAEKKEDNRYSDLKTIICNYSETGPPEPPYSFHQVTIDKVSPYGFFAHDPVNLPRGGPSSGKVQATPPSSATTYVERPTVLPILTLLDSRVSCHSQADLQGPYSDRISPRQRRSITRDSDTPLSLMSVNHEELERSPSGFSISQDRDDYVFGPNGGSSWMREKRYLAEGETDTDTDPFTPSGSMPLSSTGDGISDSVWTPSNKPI
T1 sequence (O43526 whole entry): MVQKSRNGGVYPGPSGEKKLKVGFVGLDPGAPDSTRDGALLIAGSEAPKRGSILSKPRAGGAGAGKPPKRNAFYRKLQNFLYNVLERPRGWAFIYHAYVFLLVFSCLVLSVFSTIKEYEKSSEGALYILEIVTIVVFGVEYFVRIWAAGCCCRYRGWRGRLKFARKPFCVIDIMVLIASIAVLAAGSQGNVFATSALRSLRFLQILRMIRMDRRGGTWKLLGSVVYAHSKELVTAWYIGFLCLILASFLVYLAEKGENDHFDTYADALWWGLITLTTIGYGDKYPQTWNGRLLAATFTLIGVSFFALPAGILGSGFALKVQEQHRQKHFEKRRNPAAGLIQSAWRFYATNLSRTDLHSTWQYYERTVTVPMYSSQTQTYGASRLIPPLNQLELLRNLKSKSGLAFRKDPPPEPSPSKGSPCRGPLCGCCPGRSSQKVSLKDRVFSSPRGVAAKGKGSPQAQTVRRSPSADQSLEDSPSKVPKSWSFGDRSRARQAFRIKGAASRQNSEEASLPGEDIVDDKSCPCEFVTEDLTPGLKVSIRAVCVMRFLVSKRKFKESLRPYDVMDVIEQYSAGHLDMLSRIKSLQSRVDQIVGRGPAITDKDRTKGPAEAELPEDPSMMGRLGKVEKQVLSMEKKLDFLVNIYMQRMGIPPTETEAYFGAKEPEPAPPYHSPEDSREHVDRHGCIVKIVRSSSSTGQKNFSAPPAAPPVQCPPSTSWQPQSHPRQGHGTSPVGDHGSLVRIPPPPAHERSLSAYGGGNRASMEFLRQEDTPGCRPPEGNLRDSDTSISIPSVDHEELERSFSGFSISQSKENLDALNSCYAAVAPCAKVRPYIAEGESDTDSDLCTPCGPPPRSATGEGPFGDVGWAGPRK
Chain of hERG (Q12809 whole entry): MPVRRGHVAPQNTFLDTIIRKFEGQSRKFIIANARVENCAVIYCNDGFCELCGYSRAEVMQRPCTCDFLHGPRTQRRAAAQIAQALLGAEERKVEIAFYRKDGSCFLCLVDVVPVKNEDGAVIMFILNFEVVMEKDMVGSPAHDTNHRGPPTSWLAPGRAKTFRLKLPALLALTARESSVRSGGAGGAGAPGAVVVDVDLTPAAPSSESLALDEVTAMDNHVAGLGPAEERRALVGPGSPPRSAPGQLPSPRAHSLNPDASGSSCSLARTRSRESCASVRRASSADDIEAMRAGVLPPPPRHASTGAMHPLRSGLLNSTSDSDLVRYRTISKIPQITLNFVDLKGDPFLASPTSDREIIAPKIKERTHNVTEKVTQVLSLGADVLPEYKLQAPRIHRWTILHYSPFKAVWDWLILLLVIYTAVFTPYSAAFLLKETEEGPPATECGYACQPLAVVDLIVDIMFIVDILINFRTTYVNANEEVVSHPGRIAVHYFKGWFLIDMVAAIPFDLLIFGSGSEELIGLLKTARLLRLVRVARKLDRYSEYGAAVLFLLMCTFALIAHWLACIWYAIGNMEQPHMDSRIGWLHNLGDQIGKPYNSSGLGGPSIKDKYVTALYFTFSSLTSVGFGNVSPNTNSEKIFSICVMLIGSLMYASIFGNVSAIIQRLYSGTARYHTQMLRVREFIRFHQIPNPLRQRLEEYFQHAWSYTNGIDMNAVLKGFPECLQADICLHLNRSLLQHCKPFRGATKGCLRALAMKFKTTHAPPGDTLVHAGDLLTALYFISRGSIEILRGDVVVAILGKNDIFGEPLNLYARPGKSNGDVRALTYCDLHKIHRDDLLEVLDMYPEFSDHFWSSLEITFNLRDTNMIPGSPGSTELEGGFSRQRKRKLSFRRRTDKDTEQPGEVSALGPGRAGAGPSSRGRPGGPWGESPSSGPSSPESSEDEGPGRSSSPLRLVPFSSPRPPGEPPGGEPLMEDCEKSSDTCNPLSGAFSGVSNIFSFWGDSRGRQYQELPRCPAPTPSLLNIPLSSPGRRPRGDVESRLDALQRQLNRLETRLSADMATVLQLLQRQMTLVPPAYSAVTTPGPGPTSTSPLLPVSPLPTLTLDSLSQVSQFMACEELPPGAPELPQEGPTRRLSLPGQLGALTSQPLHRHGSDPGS

Compound: Bleomycin sulfate [reference compound]
- Micronucleus response Absolute MEC (CHO-K1 cells): >28 µM
- CC50 (CHO-K1 cells; read-out: Cytotoxicity (%) Absolute EC50): 1590 nM

Compound: CC(C)c1cc(Cl)cc(Cl)c1C(O)c1ccc(F)c(CC(=O)NCC2(O)CCC2)c1 (racemic) [Compound 533 racemic]
- Inhibition of current induced AP response (rat DRG neurons [1]): reduced current induced AP inhibition
- EC50 (hKv7.2/3; Table 1, read-out: Kv7.2/7.3 IC50): 1500 nM
- Inhibition of capsaicin induced AP response (rat DRG neurons [2]): highly potentiating capsaicin induced AP inhibition
- hERG IC50 (inhibition in parentheses) (hERG): 0%

Compound: CC(C)(C)c1ccc(/C=C/C(=O)Nc2ccc3c(c2)OCCO3)cc1 [AMG9810, reference compound]
- Current evoked response (rat DRG neurons [1]; 50 nM): remains unchanged
- Inhibition of capsaicin evoked firing (rat DRG neurons [2]; 50 nM): about 50%
- hTRPV1 inhibition potency, Kv7.2/3 co-expressed and activated (hTRPV1 [3]): failure to gain TRPV1-inhibition potency

Compound: CC(C)c1cc(Cl)cc(Cl)c1C(O)c1ccc(F)c(CC(=O)NCC2(O)CCC2)c1 (single isomer, unassigned) [Compound 533p2]
- Inhibition of current induced AP response (rat DRG neurons [1]; 0.1 µM): inhibits the current-evoked rat DRGs spiking
- Inhibition of current induced AP response (rat DRG neurons [1]; listed as 533P2, 0.1 µM): inhibits current induced AP
- Kv7.2/3 activation (words) (hKv7.2/3): higher
- Kv7.2/3 activation (words) (hKv7.2/3; listed as 533P2): more potent activation of Kv7.2/3
- TRPV1 modulation (words) (hTRPV1 [4]): activates hTRPV1
- TRPV1 modulation (words) (hTRPV1 [4]; listed as 533P2): activating TRPV1
- Inhibition of capsaicin induced AP response (rat DRG neurons [2]; 0.1 µM): facilitated
- Inhibition of capsaicin induced AP response (rat DRG neurons [2]; listed as 533P2, 0.1 µM): potentiates capsaicin induced AP
